# How the values were obtained:
# bedstraw = test: Test B pre/postemergence bedstraw; assay type: in vivo, Galium aparine; details: Preemergence
# Method in brief: (§1)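 Test chemicals in a non-phytotoxic solvent mixture with surfactant were sprayed preemergence onto planted seeds and postemergence onto plants 2 to 18 cm tall (1- to 4-leaf stage). After twelve to sixteen days in a greenhouse, injury was visually rated against untreated controls from 0 (no effect) to 10 (complete control).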
# blackgrass = test: Test B pre/postemergence blackgrass; assay type: in vivo, Alopecurus myosuroides; details: Preemergence
# Method in brief: as §1
# surinam grass = test: Test B pre/postemergence surinam grass; assay type: in vivo, Brachiaria decumbens; details: Preemergence
# Method in brief: as §1
# cocklebur = test: Test B pre/postemergence cocklebur; assay type: in vivo, Xanthium strumarium; details: Preemergence
# Method in brief: as §1
# corn = test: Test B pre/postemergence corn; assay type: in vivo, Zea mays; details: Preemergence
# Method in brief: as §1
# crabgrass = test: Test B pre/postemergence crabgrass; assay type: in vivo, Digitaria sanguinalis; details: Preemergence
# Method in brief: as §1
# giant foxtail = test: Test B pre/postemergence giant foxtail; assay type: in vivo, Setaria faberii; details: Preemergence
# Method in brief: as §1
# morningglory = test: Test B pre/postemergence morningglory; assay type: in vivo, Ipomoea hederacea; details: Preemergence
# Method in brief: as §1
# pigweed = test: Test B pre/postemergence pigweed; assay type: in vivo, Amaranthus retroflexus; details: Preemergence
# Method in brief: as §1
# rape = test: Test B pre/postemergence rape; assay type: in vivo, Brassica napus; details: Preemergence
# Method in brief: as §1
# soybean = test: Test B pre/postemergence soybean; assay type: in vivo, Glycine max; details: Preemergence
# Method in brief: as §1
# sugar beet = test: Test B pre/postemergence sugar beet; assay type: in vivo, Beta vulgaris; details: Preemergence
# Method in brief: as §1
# velvetleaf = test: Test B pre/postemergence velvetleaf; assay type: in vivo, Abutilon theophrasti; details: Preemergence
# Method in brief: as §1
# wheat = test: Test B pre/postemergence wheat; assay type: in vivo, Triticum aestivum; details: Preemergence
# Method in brief: as §1
# wild oat = test: Test B pre/postemergence wild oat; assay type: in vivo, Avena fatua; details: Preemergence
# Method in brief: as §1
# purple nutsedge = test: Test B pre/postemergence purple nutsedge; assay type: in vivo, Cyperus rotundus; details: Preemergence
# Method in brief: as §1
# rice = test: Test B flood test rice; assay type: in vivo, Oryza sativa
# Method in brief: (§2)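 Each value is a visual injury score relative to controls, with 10 meaning complete control and 0 no effect. Evaluation took place twelve to sixteen days after the 2-leaf-stage plants were treated and kept in the greenhouse.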
# smallflower flatsedge = test: Test B flood test smallflower flatsedge; assay type: in vivo, Cyperus difformis
# Method in brief: as §2
# duck salad = test: Test B flood test duck salad; assay type: in vivo, Heteranthera limosa
# Method in brief: as §2
# bamyardgrass = test: Test B flood test barnyardgrass; assay type: in vivo, Echinochloa crus-galli
# Method in brief: as §2
# [1] = test system: Pioneer hybrid P33G26 corn; test: Test H corn injury, herbicide and safener mixtures applied to soil; details: in vivo
# Experimental: Mixtures of the herbicide and safeners were applied to pots of a soil mixture previously sown with corn. Pioneer hybrid P33G26 corn was sown in pots containing a sterile mix of 60% sassafras soil and 40% Metro Mix 360® growing medium (pH 6.7, O.M. 2%). Test compounds were dissolved in AGWT (a mixture of 0.25% Tween 20 surfactant, 5% water, 5% glycerin and 89.75% acetone) and sprayed on the soil as pots passed under a stationary 8002E nozzle. Treatments were applied at a 33 gal/acre rate of the AGWT carrier. After treatment, the test pots were placed in the greenhouse and watered. There were two replications for each treatment. Each pot contained eight corn seeds. The pots within each replication were placed in random positions on greenhouse benches. Test plants were fertilized as they were watered with approximately 200 ppm of N (as water soluble 20-20-20 fertilizer) which was metered into the water lines with a fertilizer injector. Daytime temperatures was 23-30° C. and night time temperature was 18-25° C. The test plants were supplemented with artificial lighting. The lights were activated whenever the natural light intensity dropped below the programmed threshold. Day length was maintained for approximately 14 hours.
# The test was evaluated approximately 12 days after treatment. […]
# [2] = Rate 125 g/ha, scale of 0 to 10 where 0 is no effect and 10 is complete control
# [3] = Rate 250 g/ha, scale 0 to 10 (0 no effect, 10 complete control)
# [4] = Rate 500 g/ha, scale of 0 to 10 where 0 is no effect and 10 is complete control
# [5] = Rate 1000 g/ha, scale 0 to 10 (0 no effect, 10 complete control)
# [6] = Rate 62 g/ha, flood test species, Pre-emergence, visual evaluation after twelve to sixteen days
# [7] = Rate 125 g/ha, under heading Pre-emergence, flood test species, visual evaluation after twelve to sixteen days
# [8] = Rate 250 g/ha, Pre-emergence (flood test species), scale 0 to 10, 0 is no effect, 10 is complete control
# [9] = Rate 500 g/ha, Pre-emergence section of Table B, 0 to 10 scale (0 no effect, 10 complete control)
compound,measurement,setting,value
COP(=O)(CCn1c(=O)on(C(=O)N(c2ccccc2)C(C)C)c1=O)OC [Compound 697],"Plant response rating, Bedstraw",bedstraw; [2],0
same,"Plant response rating, Bedstraw",bedstraw; [3],0
same,"Plant response rating, Bedstraw",bedstraw; [4],0
same,"Plant response rating, Bedstraw",bedstraw; [5],0
same,"Plant response rating, Blackgrass",blackgrass; [2],0
same,"Plant response rating, Blackgrass",blackgrass; [3],2
same,"Plant response rating, Blackgrass",blackgrass; [4],6
same,"Plant response rating, Blackgrass",blackgrass; [5],10
same,"Plant response rating, B. signalgrass",surinam grass; [2],0
same,"Plant response rating, B. signalgrass",surinam grass; [3],0
same,"Plant response rating, B. signalgrass",surinam grass; [4],5
same,"Plant response rating, B. signalgrass",surinam grass; [5],9
same,"Plant response rating, Cocklebur",cocklebur; [3],0
same,"Plant response rating, Cocklebur",cocklebur; [4],0
same,"Plant response rating, Cocklebur",cocklebur; [5],0
same,"Plant response rating, Corn",corn; [2],0
same,"Plant response rating, Corn",corn; [3],0
same,"Plant response rating, Corn",corn; [5],0
same,"Plant response rating, Crabgrass",crabgrass; [2],0
same,"Plant response rating, Crabgrass",crabgrass; [3],4
same,"Plant response rating, Crabgrass",crabgrass; [5],9
same,"Plant response rating, Giant foxtail",giant foxtail; [2],0
same,"Plant response rating, Giant foxtail",giant foxtail; [5],10
same,"Plant response rating, Morningglory",morningglory; [2],0
same,"Plant response rating, Morningglory",morningglory; [5],5
same,"Plant response rating, Redroot pigweed",pigweed; [2],0
same,"Plant response rating, Redroot pigweed",pigweed; [5],0
same,"Plant response rating, Rape",rape; [2],0
same,"Plant response rating, Rape",rape; [5],0
same,"Plant response rating, Soybean",soybean; [2],0
same,"Plant response rating, Soybean",soybean; [5],0
same,"Plant response rating, Sugarbeets",sugar beet; [2],0
same,"Plant response rating, Sugarbeets",sugar beet; [5],0
same,"Plant response rating, Velvetleaf",velvetleaf; [2],0
same,"Plant response rating, Velvetleaf",velvetleaf; [5],2
same,"Plant response rating, Wheat",wheat; [2],0
same,"Plant response rating, Wheat",wheat; [5],7
same,"Plant response rating, Wild oats",wild oat; [2],0
same,"Plant response rating, Wild oats",wild oat; [5],9
same,"Plant response rating, Nutsedge",purple nutsedge; [2],0
same,"Plant response rating, Nutsedge",purple nutsedge; [5],0
same,"Plant response rating, Rice (0 to 10 scale, 0 is no effect, 10 is complete control)",rice; [6],0
same,"Rice plant response rating (0 to 10 scale, 0 is no effect, 10 is complete control)",rice; [7],0
same,Rice plant response rating,rice; [8],0
same,Rice plant response rating,rice; [9],0
same,"Plant response rating, S. Flatsedge (0 to 10 scale, 0 is no effect, 10 is complete control)",smallflower flatsedge; [6],0
same,"S. Flatsedge plant response rating (0 to 10 scale, 0 is no effect, 10 is complete control)",smallflower flatsedge; [7],0
same,S. Flatsedge plant response rating,smallflower flatsedge; [8],0
same,S. Flatsedge plant response rating,smallflower flatsedge; [9],0
same,"Plant response rating, Ducksalad (0 to 10 scale, 0 is no effect, 10 is complete control)",duck salad; [6],0
same,"Ducksalad plant response rating (0 to 10 scale, 0 is no effect, 10 is complete control)",duck salad; [7],0
same,Ducksalad plant response rating,duck salad; [8],0
same,Ducksalad plant response rating,duck salad; [9],0
same,"Plant response rating, Barnyardgrass (0 to 10 scale, 0 is no effect, 10 is complete control)",bamyardgrass; [6],0
same,"Barnyardgrass plant response rating (0 to 10 scale, 0 is no effect, 10 is complete control)",bamyardgrass; [7],0
same,Barnyardgrass plant response rating,bamyardgrass; [8],0
same,Barnyardgrass plant response rating,bamyardgrass; [9],0
CC1COc2ccccc2N1C(=O)C(Cl)Cl (stereo not shown) [benoxacor],Safening of Compound 113 on corn,[1],functioned very effectively as safeners

# Reference: patent US6737383B1, “Herbicidal oxadiazolidines” (priority 1999, dated 2004)
